# Data reported in ChEMBL document CHEMBL3886883, “Cyclic amines” (2016).
# Biological target: T1, P2X purinoceptor 7 (Homo sapiens, UniProt Q99572)
# T1 sequence (Q99572 whole entry): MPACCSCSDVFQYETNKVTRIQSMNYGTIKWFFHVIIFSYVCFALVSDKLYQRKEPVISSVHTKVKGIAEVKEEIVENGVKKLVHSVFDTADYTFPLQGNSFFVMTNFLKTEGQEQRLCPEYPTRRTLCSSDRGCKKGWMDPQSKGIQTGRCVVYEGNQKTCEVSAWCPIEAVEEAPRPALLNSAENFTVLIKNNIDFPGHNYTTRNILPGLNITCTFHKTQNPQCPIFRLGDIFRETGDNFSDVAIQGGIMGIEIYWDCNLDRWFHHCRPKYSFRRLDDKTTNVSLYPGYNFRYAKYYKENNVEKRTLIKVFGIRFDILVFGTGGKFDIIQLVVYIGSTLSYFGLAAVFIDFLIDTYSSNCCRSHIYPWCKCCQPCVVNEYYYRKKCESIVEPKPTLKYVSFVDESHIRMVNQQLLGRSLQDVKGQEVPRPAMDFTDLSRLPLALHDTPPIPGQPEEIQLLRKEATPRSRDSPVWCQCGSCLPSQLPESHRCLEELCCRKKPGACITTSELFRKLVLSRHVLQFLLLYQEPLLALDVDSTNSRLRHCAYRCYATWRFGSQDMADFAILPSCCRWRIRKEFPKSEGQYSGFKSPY
# Assay: Fluorescent Imaging Plate Reader (FLIPR) Assay: Briefly, 293-human or mouse P2X7 stable cells were incubated in sucrose buffer, pH 7.4 [KCl (5 mM), NaH2PO42H2O (9.6 mM), HEPES (25 mM), sucrose (280 mM), glucose (5 mM), CaCl2 (0.5 mM), and probenecid (0.1425 g in 3 mL 1N NaOH was added for 500 mL solution)] in 384-well plates. 93-rat P2X7 stable cells were incubated in HHPB (pH 7.4) [consisting of Hank's BSS (1X); HEPES (pH 7.4) (20 mM) (Sigma); probenecid (0.710 g/5 mL 1N NaOH) (Sigma); and BSA (0.05%) (Roche) which was added after the pH had been adjusted] in 384-well plates. Fluo-4 NW dye mix (Molecular Probes, Inc., Eugene, Oreg., USA) was prepared in buffer (see manufacturer's instructions). Cell plates were removed from the 37° C. incubator, the media discarded and then 30 μL of dye was added to each well. Plates were placed in the 37° C., non-CO2 incubator for 30 minutes and then room temperature for 30 minutes. Two sets of drug plates were prepared: A) Mixtures of compound plus agonist were prepared as follows, in order to determine close response: BzATP: 11 point ½ log, diluted in buffer, starting from 1 mM. Testing compounds: 11 point ½ log, diluted in 2% DMSO buffer starting from 10 μM. B) Agonist only mixture was prepared with BzATP at a single concentration in buffer (concentration determined by dose response). Compound mixtures (A) were added to assay plates containing cells and placed at room temperature for 30 minutes, then BzATP (B) was added. Fluorescence was read using the Tetra FLIPR® (Molecular Devices, Inc., Sunnyvale, Calif., USA) and IC50 values were calculated by standard methods to determine antagonist activity.
# Type: cell-based
row,IC50 [nM],Structure (SMILES)
1,21,Cc1ccc(Cl)c(C(=O)NCC(c2ccc(F)cc2)N2CCOCC2)c1 (stereo not drawn)
2,59,COc1ccc(C(CNC(=O)c2cc(C)ccc2Cl)N2CCOCC2)cc1 (stereo not drawn)
3,650,COc1ccc(C(CNC(=O)c2cc(C)ccc2Cl)N2CCCCC2)cc1 (stereo not drawn)
